Literature values as cited in US20100178364A1, “Dietary supplements against latent foreign DNA” (priority 2009, published 2010).
Like-named read-outs stand apart in the source and are kept apart here.

Columns and labels:
[1] = test system: EBV immediate-early protein Rta
[2] = test system: LANA-1, v-cyclin, and v-FLIP proteins; conditions: KSHV positive cells (BCBL-1, BC-3, BC-1) treated 2, 3, 6 days; effect reversible
[3] = tested levels (3 and 4 mM)
LT1/LT2 promoter = conditions: BJAB cells, GA-treated vs untreated

CC(/C=C/C(=O)NO)=C\[C@@H](C)C(=O)c1ccc(N(C)C)cc1 [TSA, reference compound]
percentage of cells expressing Rta ([1]; P3HR1 cells after TSA alone (lytic cycle activator)): 23.4%

CCCCCCCCCCCCCC(=O)O[C@@H]1[C@@H](C)[C@@]2(O)[C@@H](C=C(CO)C[C@]3(O)C(=O)C(C)=C[C@@H]23)[C@@H]2C(C)(C)[C@]12OC(C)=O [TPA, 12-O-tetradecanoyl-phorbol-13-acetate, reference compound]
disruption of mitochondrial membranes / DNA condensation (KSHV-positive B cells; TPA treatment (latent to lytic switch)): did not disrupt the mitochondrial membranes or caused DNA condensation

CC1(C)[C@@H](O[C@H]2O[C@H](C(=O)O)[C@@H](O)[C@H](O)[C@H]2O[C@@H]2O[C@H](C(=O)O)[C@@H](O)[C@H](O)[C@H]2O)CC[C@]2(C)[C@H]3C(=O)C=C4[C@@H]5C[C@@](C)(C(=O)O)CC[C@]5(C)CC[C@@]4(C)[C@]3(C)CC[C@@H]12 [GA, glycyrrhizic acid]
disruption of mitochondrial membranes / DNA condensation (KSHV-positive B cells; uninfected B cells): no disruptions of their mitochondrial membranes or DNA condensation | LANA-1 protein expression [2]: decreased | toxicity [3]: not being toxic at the tested levels | LT1/LT2 promoter activity (luciferase expression) (LT1/LT2 promoter): does not affect the LT1/LT2 promoter activity

C[C@H]1[C@H](OC(=O)CCC(=O)O)O[C@@H]2O[C@@]3(C)CC[C@H]4[C@H](C)CC[C@@H]1[C@@]24OO3 [artesunate]
viral decay T ½ (CMV; CMV load kinetics during artesunate treatment, oral 100 mg/day): 22 to 45.6 h | hematopoiesis (CMV; within 10 days): improved

O=C(O[C@@H]1Cc2c(O)cc(O)cc2O[C@@H]1c1cc(O)c(O)c(O)c1)c1cc(O)c(O)c(O)c1 [EGCG, Epigallocatechin gallate]
percentage of cells expressing Rta ([1]; TSA-treated P3HR1 cells, 100 mM EGCG): 0.5% | percentage of cells expressing Rta ([1]; TSA-treated P3HR1 cells, EGCG): 9.8%

Nc1nc(O)c2ncn(COC(CO)CO)c2n1 [ganciclovir]
decrease of viral DNA load (CMV; by day 7 of treatment, one patient): 1 log
